{"source": "patent US20150031668A1", "about": "“CHROMAN DERIVATIVES AS TRPM8 INHIBITORS” (AMGEN INC., priority 2013, published 2015)", "data": [{"target": "T1, human TRPM8 (Homo sapiens, UniProt Q7Z2W7)", "T1 construct": "expressed in transfected cells; host or cells: Chinese hamster ovary (CHO) cells, T-REx tetracycline-inducible expression system (Invitrogen); co-transfected with pcDNA3.1 aequorin", "T1 sequence (Q7Z2W7 whole entry)": "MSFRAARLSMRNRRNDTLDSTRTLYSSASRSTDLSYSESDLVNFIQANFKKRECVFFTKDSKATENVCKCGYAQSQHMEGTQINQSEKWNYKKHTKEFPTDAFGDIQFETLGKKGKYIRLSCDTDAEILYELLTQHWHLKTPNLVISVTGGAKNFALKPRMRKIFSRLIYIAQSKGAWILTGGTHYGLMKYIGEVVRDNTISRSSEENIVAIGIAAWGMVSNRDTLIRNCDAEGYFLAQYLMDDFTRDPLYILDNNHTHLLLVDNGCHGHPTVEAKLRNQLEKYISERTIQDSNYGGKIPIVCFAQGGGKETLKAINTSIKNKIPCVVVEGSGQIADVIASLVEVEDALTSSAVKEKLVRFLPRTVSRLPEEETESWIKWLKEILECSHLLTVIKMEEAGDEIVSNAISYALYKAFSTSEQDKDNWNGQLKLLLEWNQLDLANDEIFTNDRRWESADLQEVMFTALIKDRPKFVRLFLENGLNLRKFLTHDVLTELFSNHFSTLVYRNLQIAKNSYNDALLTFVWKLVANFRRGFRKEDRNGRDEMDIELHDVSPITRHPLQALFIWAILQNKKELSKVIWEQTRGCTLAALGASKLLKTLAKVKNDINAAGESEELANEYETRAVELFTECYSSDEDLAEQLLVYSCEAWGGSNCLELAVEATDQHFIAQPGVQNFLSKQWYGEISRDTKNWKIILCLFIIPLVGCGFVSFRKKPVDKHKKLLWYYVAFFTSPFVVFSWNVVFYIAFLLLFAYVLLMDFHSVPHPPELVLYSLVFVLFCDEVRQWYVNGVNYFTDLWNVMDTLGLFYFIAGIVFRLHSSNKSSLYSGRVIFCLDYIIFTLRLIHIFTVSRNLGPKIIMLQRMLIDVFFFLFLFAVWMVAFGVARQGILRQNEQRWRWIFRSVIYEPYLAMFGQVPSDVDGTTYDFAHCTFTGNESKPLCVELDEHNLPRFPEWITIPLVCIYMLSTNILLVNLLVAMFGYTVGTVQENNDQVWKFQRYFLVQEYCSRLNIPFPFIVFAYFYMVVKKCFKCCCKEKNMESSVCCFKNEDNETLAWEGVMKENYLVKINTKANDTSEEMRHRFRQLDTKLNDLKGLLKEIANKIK", "assay": "Luminescence readout assay for measuring intracellular calcium (aequorin, CHO cells expressing human TRPM8; icilin, L-menthol or cold activation)", "format": "cell-based", "conditions": "CHO cells expressing human TRPM8, icilin activation (1 μM), aequorin luminescence; read-out: hTRPM8 IC50", "in_short": "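Activation was by 1 μM icilin, 100 μM L-menthol (test compound 2.5 min ahead) or cold buffer below 10° C (compound 1 min ahead). Calcium rise measured as aequorin luminescence in CHO cells with tetracycline-inducible human TRPM8.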", "units": {"IC50": "nM"}, "values": [{"smiles": "O=C(N[C@]1(c2ccc(-c3ccc(F)c(CO)c3)cc2)CCOc2cccnc21)c1ccc(F)cc1", "note": "[Example 122, (S)-4-fluoro-N-(4-(4′-fluoro-3′-(hydroxymethyl)-[1,1-biphenyl]-4-yl)-3,4-dihydro-2H-pyrano[3,2-b]pyridin-4-yl)benzamide]", "IC50": 1520}, {"smiles": "NC(=O)c1cc(-c2ccc([C@@]3(NC(=O)c4ccc(F)cc4)CCOc4cccnc43)cc2)ccc1Cl", "note": "[Example 123, (S)-4-chloro-4′-(4-(4-fluorobenzamido)-3,4-dihydro-2H-pyrano[3,2-b]pyridin-4-yl)-[1,1′-biphenyl]-3-carboxamide]", "IC50": 3560}, {"smiles": "O=C(N[C@]1(c2ccc(-c3cncnc3)cc2)CCOc2cccnc21)c1ccc(F)cc1", "note": "[Example 124, (S)-4-fluoro-N-(4-(4-(pyrimidin-5-yl)phenyl)-3,4-dihydro-2H-pyrano[3,2-b]pyridin-4-yl)benzamide]", "IC50": 1410}, {"smiles": "Cc1noc(C)c1-c1ccc([C@@]2(NC(=O)c3ccc(F)cc3)CCOc3cccnc32)cc1", "note": "[Example 125, (S)-N-(4-(4-(3,5-dimethylisoxazol-4-yl)phenyl)-3,4-dihydro-2H-pyrano[3,2-b]pyridin-4-yl)-4-fluorobenzamide]", "IC50": 429}, {"smiles": "Nc1cccc(-c2ccc([C@@]3(NC(=O)c4ccc(F)cc4)CCOc4cccnc43)cc2)c1", "note": "[Example 126, (S)-N-(4-(3′-amino-[1,1′-biphenyl]-4-yl)-3,4-dihydro-2H-pyrano[3,2-b]pyridin-4-yl)-4-fluorobenzamide]", "IC50": 908}, {"smiles": "COc1ncc(-c2ccc([C@@]3(NC(=O)c4ccc(F)cc4)CCOc4cccnc43)cc2)cn1", "note": "[Example 127, (S)-4-fluoro-N-(4-(4-(2-methoxypyrimidin-5-yl)phenyl)-3,4-dihydro-2H-pyrano[3,2-b]pyridin-4-yl)benzamide]", "IC50": 336}, {"smiles": "O=C(N[C@]1(c2ccc(-c3ccccc3CO)cc2)CCOc2cccnc21)c1ccc(F)cc1", "note": "[Example 128, (S)-4-fluoro-N-(4-(2′-(hydroxymethyl)-[1,1′-biphenyl]-4-yl)-3,4-dihydro-2H-pyrano[3,2-b]pyridin-4-yl)benzamide]", "IC50": 501}, {"smiles": "CN(C)C(=O)c1cccc(-c2ccc([C@@]3(NC(=O)c4ccc(F)cc4)CCOc4cccnc43)cc2)c1", "note": "[Example 129, (S)-4′-(4-(4-fluorobenzamido)-3,4-dihydro-2H-pyrano[3,2-b]pyridin-4-yl)-N,N-dimethyl-[1,1′-biphenyl]-3-carboxamide]", "IC50": 2600}, {"smiles": "COc1ccncc1-c1ccc([C@@]2(NC(=O)c3ccc(F)cc3)CCOc3cccnc32)cc1", "note": "[Example 130, (S)-4-fluoro-N-(4-(4-(4-methoxypyridin-3-yl)phenyl)-3,4-dihydro-2H-pyrano[3,2-b]pyridin-4-yl)benzamide]", "IC50": 1000}, {"smiles": "COc1ncccc1-c1ccc([C@@]2(NC(=O)c3ccc(F)cc3)CCOc3cccnc32)cc1", "note": "[Example 131, (S)-4-fluoro-N-(4-(4-(2-methoxypyridin-3-yl)phenyl)-3,4-dihydro-2H-pyrano[3,2-b]pyridin-4-yl)benzamide]", "IC50": 113}, {"smiles": "Cc1ccncc1-c1ccc([C@@]2(NC(=O)c3ccc(F)cc3)CCOc3cccnc32)cc1", "note": "[Example 132, (S)-4-fluoro-N-(4-(4-(4-methylpyridin-3-yl)phenyl)-3,4-dihydro-2H-pyrano[3,2-b]pyridin-4-yl)benzamide]", "IC50": 216}, {"smiles": "O=C(N[C@]1(c2ccc(-c3ccc(N4CCOCC4)cc3)cc2)CCOc2cccnc21)c1ccc(F)cc1", "note": "[Example 133, (S)-4-fluoro-N-(4-(4′-morpholino-[1,1′-biphenyl]-4-yl)-3,4-dihydro-2H-pyrano[3,2-b]pyridin-4-yl)benzamide]", "IC50": 156}, {"smiles": "O=C(N[C@]1(c2ccc(-c3cccc(F)c3O)cc2)CCOc2cccnc21)c1ccc(F)cc1", "note": "[Example 134, (S)-4-fluoro-N-(4-(3′-fluoro-2′-hydroxy-[1,1′-biphenyl]-4-yl)-3,4-dihydro-2H-pyrano[3,2-b]pyridin-4-yl)benzamide]", "IC50": 320}, {"smiles": "COc1cccc(-c2ccc([C@@]3(NC(=O)c4ccc(F)cc4)CCOc4cccnc43)cc2)c1O", "note": "[Example 135, (S)-4-fluoro-N-(4-(2′-hydroxy-3′-methoxy-[1,1′-biphenyl]-4-yl)-3,4-dihydro-2H-pyrano[3,2-b]pyridin-4-yl)benzamide]", "IC50": 113}, {"smiles": "COc1ccc(-c2ccc([C@@]3(NC(=O)c4ccc(F)cc4)CCOc4cccnc43)cc2)c(CO)c1", "note": "[Example 136, (S)-4-fluoro-N-(4-(2′-(hydroxymethyl)-4′-methoxy-[1,1′-biphenyl]-4-yl)-3,4-dihydro-2H-pyrano[3,2-b]pyridin-4-yl)benzamide]", "IC50": 784}, {"smiles": "CN(C)C(=O)c1ccc(-c2ccc([C@@]3(NC(=O)c4ccc(F)cc4)CCOc4cccnc43)cc2)cc1", "note": "[Example 137, (S)-4′-(4-(4-fluorobcnzamido)-3,4-dihydro-2H-pyrano[3,2-b]pyridin-4-yl)-N,N-dimethyl-[1,1′-biphenyl]-4-carboxamide]", "IC50": 1520}, {"smiles": "CNC(=O)c1ccc(-c2ccc([C@@]3(NC(=O)c4ccc(F)cc4)CCOc4cccnc43)cc2)cc1", "note": "[Example 138, (S)-4′-(4-(4-fluorobenzamido)-3,4-dihydro-2H-pyrano[3,2-b]pyridin-4-yl)-N-methyl-[1,1′-biphenyl]-4-carboxamide]", "IC50": 3160}, {"smiles": "O=C(N[C@]1(c2ccc(-c3cnc(Cl)nc3)cc2)CCOc2cccnc21)c1ccc(F)cc1", "note": "[Example 139, (S)-N-(4-(4-(2-chloropyrirnidin-5-yl)phenyl)-3,4-dihydro-2H-pyrano[3,2-b]pyridin-4-yl)-4-fluorobenzamide]", "IC50": 122}, {"smiles": "O=C(N[C@]1(c2ccc(-c3cc(F)ccc3CO)cc2)CCOc2cccnc21)c1ccc(F)cc1", "note": "[Example 140, (S)-4-fluoro-N-(4-(5′-fluoro-2′-(hydroxymethyl)-[1,1′-biphenyl]-4-yl)-3,4-dihydro-2H-pyrano[3,2-b]pyridin-4-yl)benzamide]", "IC50": 340}, {"smiles": "N#Cc1cncc(-c2ccc([C@@]3(NC(=O)c4ccc(F)cc4)CCOc4cccnc43)cc2)c1", "note": "[Example 141, (S)-N-(4-(4-(5-cyanopyridin-3-yl)phenyl)-3,4-dihydro-2H-pyrano[3,2-b]pyridin-4-yl)-4-fluorobenzamide]", "IC50": 260}, {"smiles": "O=C(N[C@]1(c2ccc(-c3cccc(N4CCOCC4)c3)cc2)CCOc2cccnc21)c1ccc(F)cc1", "note": "[Example 142, (S)-4-fluoro-N-(4-(3′-morpholino-[1,1′-biphenyl]-4-yl)-3,4-dihydro-2H-pyrano[3,2-b]pyridin-4-yl)benzamide]", "IC50": 336}, {"smiles": "Nc1ccccc1-c1ccc([C@@]2(NC(=O)c3ccc(F)cc3)CCOc3cccnc32)cc1", "note": "[Example 143, (S)-N-(4-(2′-amino-[1,1′-biphenyl]-4-yl)-3,4-dihydro-2H-pyrano[3,2-b]pyridin-4-yl)-4-fluorobenzamide]", "IC50": 176}, {"smiles": "CS(=O)(=O)c1ccccc1-c1ccc([C@@]2(NC(=O)c3ccc(F)cc3)CCOc3cccnc32)cc1", "note": "[Example 144, (S)-4-fluoro-N-(4-(2′-(methylsulfonyl)-[1,1′-biphenyl]-4-yl)-3,4-dihydro-2H-pyrano[3,2-b]pyridin-4-yl)benzamide]", "IC50": 1920}, {"smiles": "O=C(N[C@]1(c2ccc(-c3ccoc3)cc2)CCOc2cccnc21)c1ccc(F)cc1", "note": "[Example 145, (S)-4-fluoro-N-(4-(4-(furan-3-yl)phenyl)-3,4-dihydro-2H-pyrano[3,2-b]pyridin-4-yl)benzamide]", "IC50": 70}]}]}
